Legend:
[1] = tested on: rats with chronic stress induced depression model; experiment: Jump stair test, chronic stress induced depression; format: in vivo, SD rats; settings: 3.5 mg/kg/day gavage for 21 days, 5 minutes
Method: The gavage was carried out along with the model establishment, once a day, for 21 days. […] Referring to the methods in the literature (Xu Jing, Li Xiaoqiu, Establishment and evaluation of the model of chronic stress induced depression, Chinese Journal of Behavioral Medical Science, 2003, 12(1): 14 16), the model was established (i.e., establishing animal model of anti-depression by means of CUMS): the foot electric shock (voltage: […] (5 minutes), drying at 45° C. (5 minutes), tail nipping (1 min), wet feeding (wet mat), reversed day and night (24 hours), fasting (24 hours), water deprivation (24 hours) were randomly scheduled within 21 days, one kind of stimulations was given for each day, except for the animals of vehicle group, the others were separately caged with free diet, at the room temperature of (24±1)° C., with the relative humidity of (60±10)%. […] A wooden platform (height: 5 cm, diameter: 8 cm) was placed into the box at the left back corner. Animals were placed into the response box to adapt to the environment for 3 minutes, and then the box was immediately electrified with […] alternating current, the normal response of the animal which suffered from electric shock was to jump onto the platform in order to avoid such harmful stimulation. Most animals were likely to jump down to the copper railings again or for several times, and then quickly jump back to the platform after suffering from the electric shock, being trained like this for 5 minutes, the times that the rats suffered from the electric shock were designated as error times. The test was carried out again after 24 hours, rats were placed on the platform and the box was charged, timing and recording the error times for 5 minutes. All parameters to be tested were expressed as Mean±SD (X±s), and tested by means of analysis of variance (ANOVA) in SPSS 12.0 software (purchased from SPSS Inc., USA), p<0.05 means that there was a significant difference.

[2] = tested on: noradrenalin in the brain of rat; experiment: Noradrenalin in the brain of rat with chronic stress (HPLC-ECD, prefrontal cortex); format: in vivo, SD rats; settings: 3.5 mg/kg/d gavage for 21 days
Method: After being fed without water for 24 hours, SD rats were administered with 1% aqueous sucrose, the consumption of aqueous sucrose was measured for 1 hour. The rats were randomly divided into six groups (n=12 for each group) according to the consumptions of aqueous sucrose, i.e. vehicle group, model group, positive control group of Fluoroxetine Hydrochloride (2.5 mg/kg/d), high-dose group (14 mg/kg/day), medium-dose group (7 mg/kg/day), and low-dose group (3.5 mg/kg/day) of Albiflorin. The gavage was carried out along with the model establishment, once a day, for 21 days. Each group was administered at a dose of 1.0 ml/100 g weight, and weighed once a week.
The rats were fed at 6/cage as vehicle group, with normal diets and drinking water, and without any stimulation.
The rats were fed at 1/cage as the other five groups, and subjected to unpredicted stress stimulations for 21 days, including: swimming in ice water, drying, tail nipping, wet feeding, reversed day and night, fasting, water deprivation and the like. One kind of stimulations was randomly given for each day.
The animal was executed by decapitation, the brain of it was quickly stripped on the ice, the prefrontal cortex was taken out, then placed into frozen tissue tube after weighting, rapidly frozen with liquid nitrogen, and placed into the refrigerator at −70° C. until test.

[3] = tested on: ICR mice; experiment: Tail suspension test in mice, administration by gavage; format: in vivo; settings: 3.5 mg/kg/d by gavage for two days; 1 h after administration; over 4 min
Method: In the second day, 1 h after the administration, the tail of mouse (2 cm away from the tip of the tail) was fixed to the connection line of 100 g tension transducer by adhesive plaster, and the mouse was hung upside down, with the head about 15 cm away from the experimental bench, two animals isolated from each other by a cardboard were simultaneously tested for each time. The transducer was connected to the Medlab bio-signals acquisition and processing system, after 2 min of adaption, the result over 4 min was recorded, and the immobility situation was converted into the time(s). The experimental data were expressed as X±SD, and the analysis of variance for the experimental results was carried out by SPSS 11.5 statistical software (purchased from SPSS Inc., USA).

[4] = tested on: ICR mice; experiment: Forced swimming test in mice; format: in vivo; settings: 3.5 mg/kg/d by gavage for two days; 1 h after administration; last 4 min
Method: Each group was administered by gavage at a dose of 0.2 ml/10 g weight, for two days, deionized water was administered to vehicle group.
In the second day, 1 h after the administration, the mice were placed separately into a water cylinder with 20 cm of height, 18 cm of diameter, 10 cm of depth, 23±2° C. of water temperature; observing each for 6 min, after 2 min of adaption, the immobility time over the last 4 min was recorded.
The data was expressed as x±s, analyzed by SPSS 13.0 statistical software by means of One-Way ANOVA test, the homogeneity of variance was tested by LSD and SNK test.

[5] = tested on: ICR mice; experiment: Acute toxicity test of Albiflorin; format: in vivo
Method: SFP level ICR mice were administered with Albiflorin at a dose of 8.4 g/kg, the observation time was 14 days.
The nature and rate of breath, behaviors (especially whether there was any vomit-causing phenomenon), actions, color and tension of fur, abdominal shape, hardness of feces, body weight and the like were observed.

[6] = tested on: rats with chronic stress induced depression model; experiment: Consumption of 1% aqueous sucrose, chronic stress induced depression; format: in vivo, SD rats; settings: 1% aqueous sucrose for 1 hour
Method: The gavage was carried out along with the model establishment, once a day, for 21 days. […] Referring to the methods in the literature (Xu Jing, Li Xiaoqiu, Establishment and evaluation of the model of chronic stress induced depression, Chinese Journal of Behavioral Medical Science, 2003, 12(1): 14 16), the model was established (i.e., establishing animal model of anti-depression by means of CUMS): the foot electric shock (voltage: […] (5 minutes), drying at 45° C. […] All parameters to be tested were expressed as Mean±SD (X±s), and tested by means of analysis of variance (ANOVA) in SPSS 12.0 software (purchased from SPSS Inc., USA), p<0.05 means that there was a significant difference.

With `C[C@]12C[C@@H](O)[C@@H]3C[C@@]1(O[C@@H]1O[C@H](CO)[C@@H](O)[C@H](O)[C@H]1O)[C@@]3(COC(=O)c1ccccc1)C(=O)O2` [Albiflorin] the “Error times in training period” value [1] was 2.25 ± 1.42, the “Error times in testing period” value ([1]; after 24 hours) was 2.08 ± 1.31 and the NA [2] was 174.59 ± 60.35. The “Immobility Time” value [3] was 83.82 ± 35.099 s, the “Immobility Time” value [4] was 44.85 ± 29.695 s and the “safe dosage as multiple of the clinical dosage” value ([5]; 8.4 g/kg body weight, mice, by gavage) was “approximately 600 times”. The “body weight compared with the vehicle group” value ([5]; 8.4 g/kg by gavage, Day 7 and Day 14) was “without significant difference”, the “abnormal symptoms and death” value ([5]; 8.4 g/kg by gavage, observation for 14 days) was “neither any abnormal symptom nor any death was found” and the “dosage at which still safe” value ([5]; mice, by gavage) was 8.4 g/kg body weight. The “comsumption of aqeous sucrose” value ([6]; 3.5 mg/kg/day gavage, Day 0) was 12.75 ± 5.24 mL, the “comsumption of aqeous sucrose” value ([6]; 3.5 mg/kg/day gavage, Day 7) was 12.67 ± 5.42 mL and the “comsumption of aqeous sucrose” value ([6]; 3.5 mg/kg/day gavage, Day 14) was 11.83 ± 5.15 mL. The “comsumption of aqeous sucrose” value ([6]; 3.5 mg/kg/day gavage, Day 21) was 11.92 ± 3.96 mL, the “comsumption of aqeous sucrose” value ([6]; 7 mg/kg/day gavage, Day 0) was 12.67 ± 5.37 mL and the “comsumption of aqeous sucrose” value ([6]; 7 mg/kg/day gavage, Day 7) was 13.42 ± 5.37 mL. The “comsumption of aqeous sucrose” value ([6]; 14 mg/kg/day gavage, Day 0) was 12.50 ± 5.32 mL, the “comsumption of aqeous sucrose” value ([6]; 14 mg/kg/day gavage, Day 7) was 14.08 ± 3.65 mL and the “comsumption of aqeous sucrose” value ([6]; 14 mg/kg/day gavage, Day 14) was 13.00 ± 3.74 mL.
